The text below walks through data of US9040545B2, “Heterocyclyl pyrazolopyrimidine analogues as selective JAK inhibitors” (Cellzome Limited, priority 2010, dated 2015).

In one assay the target is T1, Aurora B (Homo sapiens, UniProt Q96GD4).
T1 construct: cell lysates from Jurkat cells (ATCC TIB-152) used; endogenous in cells; host or cells: Jurkat cells (ATCC TIB-152), treated with pervanadate
The assay is described as follows: Kinobeads assay, Aurora B. Type of assay: binding. Particulars: for IC50: lysate of pervanadate-treated Jurkat cells, read-out: Inhibition values (IC50) Aur B.

The target of the next assay is T2, Aurora A (Homo sapiens, UniProt O14965).
T2 construct: cell lysates from Jurkat cells (ATCC TIB-152) used; endogenous in cells; host or cells: Jurkat cells (ATCC TIB-152), treated with pervanadate
T2 sequence (O14965 1-403): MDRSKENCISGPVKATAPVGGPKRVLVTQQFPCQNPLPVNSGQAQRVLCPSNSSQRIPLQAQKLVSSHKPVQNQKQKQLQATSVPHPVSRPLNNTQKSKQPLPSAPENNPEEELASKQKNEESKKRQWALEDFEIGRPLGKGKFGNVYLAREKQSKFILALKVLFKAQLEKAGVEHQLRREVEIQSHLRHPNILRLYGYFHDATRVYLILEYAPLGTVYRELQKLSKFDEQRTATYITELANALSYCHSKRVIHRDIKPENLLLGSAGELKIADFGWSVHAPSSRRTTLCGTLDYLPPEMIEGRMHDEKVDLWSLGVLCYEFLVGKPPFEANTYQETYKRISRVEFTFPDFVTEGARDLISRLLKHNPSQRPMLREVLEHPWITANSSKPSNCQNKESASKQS
The assay is described as follows: Kinobeads assay, Aurora A. Type of assay: binding. The note with it: for IC50: lysate of pervanadate-treated Jurkat cells, read-out: Inhibition values (IC50) Aur A.

T1 sequence (Q96GD4 whole entry): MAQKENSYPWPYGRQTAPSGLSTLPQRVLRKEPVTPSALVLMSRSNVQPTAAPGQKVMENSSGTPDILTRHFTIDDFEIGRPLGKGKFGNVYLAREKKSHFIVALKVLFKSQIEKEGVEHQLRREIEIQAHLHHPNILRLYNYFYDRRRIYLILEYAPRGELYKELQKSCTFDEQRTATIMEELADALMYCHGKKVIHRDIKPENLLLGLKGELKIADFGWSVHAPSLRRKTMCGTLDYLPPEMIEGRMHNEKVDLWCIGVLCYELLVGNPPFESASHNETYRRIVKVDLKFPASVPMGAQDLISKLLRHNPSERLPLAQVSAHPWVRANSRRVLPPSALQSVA

Take `OCCn1cc(Nc2ncc3cnn(Cc4c(F)c(F)cc(N5CCOCC5)c4F)c3n2)cn1` [Example 45, 2-(4-((1-(2,3,6-Trifluoro-5-morpholinobenzyl)-1H-pyrazolo[3,4-d]pyrimidin-6-yl)amino)-1H-pyrazol-1-yl)ethanol]: on Aurora B, the “JAK3/AurB Fold Selectivity” value is given as 10-50 Fold and the IC50 (as a rule, the concentration at which inhibition is half-maximal) was in the range of 100 to 1000 nM. At Aurora A, the “JAK3/AurA Fold Selectivity” value is reported as 10-50 Fold and the IC50 lay within 100 to 1000 nM.
As to `O=C1COCCN1c1cc(F)cc(Cn2ncc3cnc(Nc4cn[nH]c4)nc32)c1` [Example 84, 4-(3-((6-((1H-Pyrazol-4-yl)amino)-1H-pyrazolo[3,4-d]pyrimidin-1-yl)methyl)-5-fluorophenyl)morpholin-3-one], on Aurora B, the “JAK3/AurB Fold Selectivity” value is 10-50 Fold and the IC50 lay in the range of 100 to 1000 nM. Also, at Aurora A, the “JAK3/AurA Fold Selectivity” value is reported as more than 50 Fold and the IC50 was in the range of 100 to 1000 nM.
For the compound `CN(C)CCCn1cc(Nc2ncc3cnn(Cc4c(F)c(F)cc(N5CCOCC5)c4F)c3n2)cn1` [Example 42, N-(1-(3-(Dimethylamino)propyl)-1H-pyrazol-4-yl)-1-(2,3,6-trifluoro-5-morpholinobenzyl)-1H-pyrazolo[3,4-d]pyrimidin-6-amine], on Aurora B, the “JAK3/AurB Fold Selectivity” value was 10-50 Fold and the IC50 is 100 to 1000 nM. Moreover, on Aurora A, the “JAK3/AurA Fold Selectivity” value was more than 50 Fold and the IC50 fell in the range of 1000 to 10000 nM.
With `O=C1COCCN1c1cccc(Cn2ncc3cnc(Nc4cnn(CCO)c4)nc32)c1F` [Example 46, 4-(2-Fluoro-3-((6-((1-(2-hydroxyethyl)-1H-pyrazol-4-yl)amino)-1H-pyrazolo[3,4-d]pyrimidin-1-yl)methyl)phenyl)morpholin-3-one], on Aurora B, the “JAK3/AurB Fold Selectivity” value is on record as 10-50 Fold and the IC50 was in the range of 100 to 1000 nM. Besides, at Aurora A, the “JAK3/AurA Fold Selectivity” value was 10-50 Fold and the IC50 lay in the range of 100 to 1000 nM.
`c1cc(Cn2ncc3cnc(Nc4cnn(CC5CCNC5)c4)nc32)cc(N2CCOCC2)c1` (stereo not drawn) [Example 60, 1-(3-Morpholinobenzyl)-N-(1-(pyrrolidin-3-ylmethyl)-1H-pyrazol-4-yl)-1H-pyrazolo[3,4-d]pyrimidin-6-amine]: at Aurora B, the “JAK3/AurB Fold Selectivity” value is more than 50 Fold and the IC50 was in the range of 1000 to 10000 nM. Also, at Aurora A, the “JAK3/AurA Fold Selectivity” value is given as more than 50 Fold and the IC50 fell in the range of 1000 to 10000 nM.
On to `Cn1cc(Nc2ncc3cnn(Cc4cc(F)cc(N5CCNCC5=O)c4)c3n2)cn1` [Example 64, 1-(3-Fluoro-5-((6-((1-methyl-1H-pyrazol-4-yl)amino)-1H-pyrazolo[3,4-d]pyrimidin-1-yl)methyl)phenyl)piperazin-2-one], for which, on Aurora B, the “JAK3/AurB Fold Selectivity” value is 10-50 Fold and the IC50 lay within 100 to 1000 nM. In addition, on Aurora A, the “JAK3/AurA Fold Selectivity” value is 10-50 Fold and the half-inhibitory concentration (IC50) fell in the range of 100 to 1000 nM.
Turning to `CN(C)CCCn1cc(Nc2ncc3cnn(Cc4cccc(N5CCOCC5)c4F)c3n2)cn1` [Example 43, N-(1-(3-(Dimethylamino)propyl)-1H-pyrazol-4-yl)-1-(2-fluoro-3-morpholinobenzyl)-1H-pyrazolo[3,4-d]pyrimidin-6-amine], on Aurora B, the “JAK3/AurB Fold Selectivity” value is more than 50 Fold and the IC50 is 100 to 1000 nM. At Aurora A, the “JAK3/AurA Fold Selectivity” value is more than 50 Fold and the IC50 was in the range of 1000 to 10000 nM.
Consider `Cn1cc(Nc2ncc3cnn(Cc4cc(F)cc(N5CCOCC5)c4)c3n2)cn1` [Example 49, 1-(3-Fluoro-5-morpholinobenzyl)-N-(1-methyl-1H-pyrazol-4-yl)-1H-pyrazolo[3,4-d]pyrimidin-6-amine], for which, on Aurora B, the “JAK3/AurB Fold Selectivity” value is on record as more than 50 Fold and the half-inhibitory concentration (IC50) lay in the range of 1000 to 10000 nM. At Aurora A, the “JAK3/AurA Fold Selectivity” value is 10-50 Fold and the IC50 was 100 to 1000 nM.
For the compound `Cn1cc(Nc2ncc3cnn(Cc4c(F)ccc(N5CCOCC5=O)c4F)c3n2)cn1` [Example 69, 4-(2,4-Difluoro-3-((6-((1-methyl-1H-pyrazol-4-yl)amino)-1H-pyrazolo[3,4-d]pyrimidin-1-yl)methyl)phenyl)morpholin-3-one], at Aurora B, the “JAK3/AurB Fold Selectivity” value is reported as 10-50 Fold and the IC50 is 100 to 1000 nM. In addition, on Aurora A, the “JAK3/AurA Fold Selectivity” value is reported as 3-10 Fold and the IC50 is less than 100 nM.
On to `O=C(c1cccc(Cn2ncc3cnc(Nc4cnn(CCO)c4)nc32)c1F)N1CCOCC1` [Example 85, (2-Fluoro-3-((6-((1-(2-hydroxyethyl)-1H-pyrazol-4-yl)amino)-1H-pyrazolo[3,4-d]pyrimidin-1-yl)methyl)phenyl)(morpholino)methanone], for which, on Aurora B, the “JAK3/AurB Fold Selectivity” value is on record as more than 50 Fold and the 50% inhibitory concentration (IC50) is 1000 to 10000 nM. Further, at Aurora A, the “JAK3/AurA Fold Selectivity” value is on record as more than 50 Fold and the IC50 lay within 100 to 1000 nM.
Regarding `OCCn1cc(Nc2ncc3cnn(Cc4cccc(N5CCNCC5)c4F)c3n2)cn1` [Example 83, 2-(4-((1-(2-Fluoro-3-(piperazin-1-yl)benzyl)-1H-pyrazolo[3,4-d]pyrimidin-6-yl)amino)-1H-pyrazol-1-yl)ethanol], on Aurora B, the “JAK3/AurB Fold Selectivity” value was 3-10 Fold and the IC50 was less than 100 nM. Besides, at Aurora A, the “JAK3/AurA Fold Selectivity” value is 10-50 Fold and the IC50 lay in the range of 100 to 1000 nM.
For `Cn1cc(Nc2ncc3cnn(Cc4cc(F)cc(N5CCOCC5=O)c4)c3n2)cn1` [Example 52, 4-(3-Fluoro-5-((6-((1-methyl-1H-pyrazol-4-yl)amino)-1H-pyrazolo[3,4-d]pyrimidin-1-yl)methyl)phenyl)morpholin-3-one], on Aurora B, the “JAK3/AurB Fold Selectivity” value was more than 50 Fold and the IC50 lay within 1000 to 10000 nM. At Aurora A, the “JAK3/AurA Fold Selectivity” value was more than 50 Fold and the IC50 lay in the range of 100 to 1000 nM.
Regarding `O=C1COCCN1c1cc(F)cc(Cn2ncc3cnc(Nc4cnn(CCO)c4)nc32)c1F` [Example 74, 4-(2,5-Difluoro-3-((6-((1-(2-hydroxyethyl)-1H-pyrazol-4-yl)amino)-1H-pyrazolo[3,4-d]pyrimidin-1-yl)methyl)phenyl)morpholin-3-one], at Aurora B, the “JAK3/AurB Fold Selectivity” value was 10-50 Fold and the IC50 was less than 100 nM. At Aurora A, the “JAK3/AurA Fold Selectivity” value was 10-50 Fold and the IC50 was less than 100 nM.
`Cn1cc(Nc2ncc3cnn(Cc4cc(F)cc(C(=O)N5CCNCC5)c4)c3n2)cn1` [Example 80, (3-Fluoro-5-((6-((1-methyl-1H-pyrazol-4-yl)amino)-1H-pyrazolo[3,4-d]pyrimidin-1-yl)methyl)phenyl)(piperazin-1-yl)methanone]: on Aurora B, the “JAK3/AurB Fold Selectivity” value is listed as 10-50 Fold and the IC50 fell in the range of 100 to 1000 nM. Moreover, on Aurora A, the “JAK3/AurA Fold Selectivity” value is listed as 3-10 Fold and the IC50 was 100 to 1000 nM.
For the compound `Cn1cc(Nc2ncc3cnn(Cc4c(F)c(F)cc(N5CCOCC5=O)c4F)c3n2)cn1` [Example 61, 4-(2,4,5-Trifluoro-3-((6-((1-methyl-1H-pyrazol-4-yl)amino)-1H-pyrazolo[3,4-d]pyrimidin-1-yl)methyl)phenyl)morpholin-3-one], on Aurora B, the “JAK3/AurB Fold Selectivity” value is 10-50 Fold and the IC50 lay in the range of 100 to 1000 nM. Moreover, at Aurora A, the “JAK3/AurA Fold Selectivity” value is listed as more than 50 Fold and the IC50 was in the range of 100 to 1000 nM.
For the compound `Cn1cc(Nc2ncc3cnn(Cc4cccc(C(=O)N5CCOCC5)c4F)c3n2)cn1` [Example 87, (2-Fluoro-3-((6-((1-methyl-1H-pyrazol-4-yl)amino)-1H-pyrazolo[3,4-d]pyrimidin-1-yl)methyl)phenyl)(morpholino)methanone], on Aurora B, the “JAK3/AurB Fold Selectivity” value was more than 50 Fold and the IC50 was in the range of 1000 to 10000 nM. Besides, at Aurora A, the “JAK3/AurA Fold Selectivity” value is more than 50 Fold and the IC50 lay in the range of 1000 to 10000 nM.
For the compound `c1cc(Cn2ncc3cnc(Nc4cnn(CC5CCCNC5)c4)nc32)cc(N2CCOCC2)c1` (stereo not drawn) [Example 48, 1-(3-Morpholinobenzyl)-N-(1-(piperidin-3-ylmethyl)-1H-pyrazol-4-yl)-1H-pyrazolo[3,4-d]pyrimidin-6-amine], on Aurora B, the “JAK3/AurB Fold Selectivity” value was more than 50 Fold and the half-inhibitory concentration (IC50) was 1000 to 10000 nM. Moreover, on Aurora A, the “JAK3/AurA Fold Selectivity” value was more than 50 Fold and the IC50 fell in the range of 1000 to 10000 nM.
Turning to `O=C1COCCN1c1cc(F)c(F)c(Cn2ncc3cnc(Nc4cnn(CCO)c4)nc32)c1` [Example 59, 4-(3,4-Difluoro-5-((6-((1-(2-hydroxyethyl)-1H-pyrazol-4-yl)amino)-1H-pyrazolo[3,4-d]pyrimidin-1-yl)methyl)phenyl)morpholin-3-one], at Aurora B, the “JAK3/AurB Fold Selectivity” value was 10-50 Fold and the IC50 fell in the range of 100 to 1000 nM. For the same compound, on Aurora A, the “JAK3/AurA Fold Selectivity” value is reported as 10-50 Fold and the IC50 was 100 to 1000 nM.
